# In US20240217990A1 (Gilead Sciences, Inc., priority 2021, published 2024):
# How the values were obtained:
# TLR7 = target: T1, TLR7 (Homo sapiens, UniProt Q9NYK1); test: TLR7 human PBMC cell-based assay (antagonist, GS-986 stimulated cytokine release); details: human PBMCs; TLR7 agonist GS-986 400 nM, 6 hours; cytokines (IL-6 and IFNα) in supernatant; read-out: TLR-7 EC50
# T1 construct: Human peripheral blood mononuclear cells (PBMCs) consist of lymphocytes, monocytes and dendritic cells that express TLR7, TLR8 and TLR9; endogenous in cells; host or cells: cryopreserved human PBMCs from healthy donors
# T1 sequence (Q9NYK1 27-1049): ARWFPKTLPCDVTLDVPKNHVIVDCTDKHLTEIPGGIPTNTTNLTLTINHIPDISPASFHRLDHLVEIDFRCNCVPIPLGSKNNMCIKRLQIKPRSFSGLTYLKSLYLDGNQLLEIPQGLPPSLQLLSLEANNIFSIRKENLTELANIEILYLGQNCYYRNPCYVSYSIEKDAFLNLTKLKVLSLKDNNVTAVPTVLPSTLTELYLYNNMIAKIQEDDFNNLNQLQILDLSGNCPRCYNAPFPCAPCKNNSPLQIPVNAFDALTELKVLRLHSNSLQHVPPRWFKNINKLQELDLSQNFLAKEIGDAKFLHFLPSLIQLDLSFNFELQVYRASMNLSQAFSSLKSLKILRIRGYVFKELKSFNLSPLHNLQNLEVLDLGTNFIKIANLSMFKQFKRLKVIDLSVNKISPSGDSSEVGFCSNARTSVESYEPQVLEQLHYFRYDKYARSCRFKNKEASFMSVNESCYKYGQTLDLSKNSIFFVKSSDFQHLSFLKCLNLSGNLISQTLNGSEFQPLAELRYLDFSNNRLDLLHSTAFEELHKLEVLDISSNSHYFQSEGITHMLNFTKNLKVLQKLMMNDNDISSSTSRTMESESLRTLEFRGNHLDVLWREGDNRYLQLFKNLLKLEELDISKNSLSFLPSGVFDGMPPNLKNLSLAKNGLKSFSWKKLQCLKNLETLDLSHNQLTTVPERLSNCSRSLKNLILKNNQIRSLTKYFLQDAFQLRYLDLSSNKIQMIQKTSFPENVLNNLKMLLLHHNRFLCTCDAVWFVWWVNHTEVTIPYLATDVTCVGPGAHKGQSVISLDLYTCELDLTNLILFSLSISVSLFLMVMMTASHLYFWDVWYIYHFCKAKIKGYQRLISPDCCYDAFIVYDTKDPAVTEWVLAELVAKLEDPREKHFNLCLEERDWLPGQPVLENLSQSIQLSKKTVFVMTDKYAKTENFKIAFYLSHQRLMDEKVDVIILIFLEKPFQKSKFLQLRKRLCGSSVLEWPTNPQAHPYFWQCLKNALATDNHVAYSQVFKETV
# Method in brief: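 EC50 derived by sigmoidal fitting of IL-6 and IFNα levels, quantified by electrochemiluminescence in supernatants of human PBMCs given 400 nM GS-986 for 6 h. Cells (100,000/well in RPMI-1640, 10% FBS) had received test antagonist 1 h beforehand, 10 doses in quadruplicate, at 37 °C.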
# TLR8 = target: T2, TLR8 (Homo sapiens, UniProt Q9NR97); test: TLR8 human PBMC cell-based assay (antagonist, Compound A stimulated cytokine release); details: human PBMCs; TLR8 agonist Compound A 800 nM, 6 hours; cytokines (TNFa and IL 12p40) in supernatant; read-out: TLR-8 EC50
# T2 construct: Human peripheral blood mononuclear cells (PBMCs) consist of lymphocytes, monocytes and dendritic cells that express TLR7, TLR8 and TLR9; endogenous in cells; host or cells: cryopreserved human PBMCs from healthy donors
# T2 sequence (Q9NR97 27-1041): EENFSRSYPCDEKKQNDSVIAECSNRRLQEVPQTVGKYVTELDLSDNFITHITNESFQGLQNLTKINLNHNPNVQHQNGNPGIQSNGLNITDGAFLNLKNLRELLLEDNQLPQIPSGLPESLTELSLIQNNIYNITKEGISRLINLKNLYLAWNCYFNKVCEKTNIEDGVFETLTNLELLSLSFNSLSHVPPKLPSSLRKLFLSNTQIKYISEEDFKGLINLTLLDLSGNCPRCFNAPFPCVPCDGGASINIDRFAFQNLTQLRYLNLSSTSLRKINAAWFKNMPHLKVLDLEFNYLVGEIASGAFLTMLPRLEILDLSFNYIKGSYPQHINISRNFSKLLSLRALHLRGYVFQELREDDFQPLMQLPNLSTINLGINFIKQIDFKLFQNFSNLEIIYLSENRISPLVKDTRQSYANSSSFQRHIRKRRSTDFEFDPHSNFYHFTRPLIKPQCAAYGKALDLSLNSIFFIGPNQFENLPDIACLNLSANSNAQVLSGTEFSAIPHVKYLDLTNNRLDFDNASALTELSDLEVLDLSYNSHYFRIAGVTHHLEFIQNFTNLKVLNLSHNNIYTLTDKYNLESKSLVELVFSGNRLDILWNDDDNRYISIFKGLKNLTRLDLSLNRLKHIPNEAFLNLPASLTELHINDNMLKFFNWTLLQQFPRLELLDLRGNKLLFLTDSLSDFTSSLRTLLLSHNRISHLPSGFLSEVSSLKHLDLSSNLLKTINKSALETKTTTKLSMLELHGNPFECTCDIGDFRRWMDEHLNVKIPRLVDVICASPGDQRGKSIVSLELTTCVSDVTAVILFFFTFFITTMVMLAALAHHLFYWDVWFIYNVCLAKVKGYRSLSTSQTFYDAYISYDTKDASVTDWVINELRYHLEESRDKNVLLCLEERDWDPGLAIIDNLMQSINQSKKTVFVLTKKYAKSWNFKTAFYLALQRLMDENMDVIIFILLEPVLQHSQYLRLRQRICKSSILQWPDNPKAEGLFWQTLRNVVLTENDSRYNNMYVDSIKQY
# Method in brief: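 Cryopreserved donor PBMCs (100,000/well, RPMI + 10% FBS) were preincubated 1 h with antagonist (10-point dose response, quadruplicate), then stimulated with Compound A (800 nM final) for 6 h at 37 °C. TNFa and IL-12p40 in supernatants were measured by electrochemiluminescence; sigmoidal fits gave EC50.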
EC50 (TLR7) [nM],EC50 (TLR8) [nM],Compound
24.5,14.6,Cc1cc(-c2[nH]c3cc(C4CCCN(CC(N)=O)C4)sc3c2C(C)C)cn2ncnc12 (centres unmarked) [Example 171]
4.1,11.6,Cc1cc(-c2[nH]c3cc(C(=O)N(C)CCN4CCCC4)sc3c2C(C)C)cn2ncnc12 [Example 99]
0.6,3.6,"Cc1cc(-c2[nH]c3cc(C4CCNCC4)sc3c2C(C)C)cn2ncnc12 [Example 154, 6-isopropyl-5-(8-methyl-[1,2,4]triazolo[1,5-a]pyridin-6-yl)-2-(piperidin-4-yl)-4H-thieno[3,2-b]pyrrole]"
12.7,7.5,Cc1cc(-c2[nH]c3cc(C(=O)N4CC(N)C4)sc3c2C(C)C)cn2ncnc12 [Example 114]
17.8,17.7,Cc1cc(-c2[nH]c3cc(C(=O)N(C)[C@@H]4CCN(C5CCC5)C[C@@H]4F)sc3c2C(C)C)cn2ncnc12 [Example 83]
1.8,5.4,Cc1cc(-c2[nH]c3cc(C(=O)N4CCNCC4)sc3c2C(C)C)cn2nnnc12 [Example 65]
21,6.7,Cc1cc(-c2[nH]c3cc(C(=O)N4C[C@H]5NCCO[C@@H]5C4)sc3c2C(C)C)cn2ncnc12 [Example 131]
5.5,5.7,"CCc1c(-c2cc(C)c3ncnn3c2)[nH]c2cc(C(=O)N3CCNCC3)sc12 [Example 62, [6-ethyl-5-(8-methyl-[1,2,4]triazolo[1,5-a]pyridin-6-yl)-4H-thieno[3,2-b]pyrrol-2-yl]-piperazin-1-yl-methanone]"
3.7,54.5,Cc1cc(-c2[nH]c3cc(C(=O)N(C)CC4CCNCC4)sc3c2C(C)C)cn2ncnc12 [Example 113]
88.7,94.1,Cc1cc(-c2[nH]c3cc(C(=O)N(C)C4CCN(CC(F)F)CC4)sc3c2C(C)C)cn2ncnc12 [Example 134]
3,12.3,Cc1cc(-c2[nH]c3cc(C(=O)N4C[C@H](N)[C@@H]5CC[C@H]4C5)sc3c2C(C)C)cn2ncnc12 [Example 91]
14,52.7,Cc1cc(-c2[nH]c3cc(C(=O)N(C4CCC4)C4CCN(CC(N)=O)CC4)sc3c2C(C)C)cn2ncnc12 [Example 167]
0.6,2.9,Cc1cc(-c2[nH]c3cc(-c4ccc(N5CCNCC5)cc4)sc3c2C(C)C)cn2ncnc12 [Example 214]
16.6,21.1,Cc1cc(-c2[nH]c3cc(C(=O)N(C)[C@H]4CNC[C@@H]4F)sc3c2C(C)C)cn2ncnc12 [Example 58]

# The remaining lines, values behind:
Compound,EC50 (TLR7) [nM],EC50 (TLR8) [nM]
Cc1cc(-c2[nH]c3cc(C4CCN(C(=O)[C@H]5CCCN5C)CC4)sc3c2C(C)C)cn2ncnc12 [Example 199],3.9,5.3
Cc1cc(-c2[nH]c3cc(-c4ccc(C5CCNCC5)cc4)sc3c2C(C)C)cn2ncnc12 [Example 221],0.8,3.3
"CCN1C[C@@H](N(C)C(=O)c2cc3[nH]c(-c4cn5ncnc5c(C)c4C)c(C(C)C)c3s2)C[C@@H](C(F)(F)F)C1 [Example 274, 5-(7,8-dimethyl-[1,2,4]triazolo[1,5-a]pyridin-6-yl)-N-((3S,5R)-1-ethyl-5-(trifluoromethyl)piperidin-3-yl)-6-isopropyl-N-methyl-4H-thieno[3,2-b]pyrrole-2-carboxamide]",360,70.7
Cc1cc(-c2[nH]c3cc(C(=O)N4CC5CC(C4)N5)sc3c2C(C)C)cc(C)n1 [Example 18],200,67.2
Cc1cc(-c2[nH]c3cc(C(=O)N(C)C4CCNCC4)sc3c2C(C)C)cc(C)n1 [Example 10],18.3,55.4
"Cc1cc(-c2[nH]c3cc(C4CCC5(C4)CN(CC(N)=O)C5)sc3c2C(C)C)cn2ncnc12 (single isomer, unassigned) [Example 311, 2-(6-(6-Isopropyl-5-(8-methyl-[1,2,4]triazolo[1,5-a]pyridin-6-yl)-4H-thieno[3,2-b]pyrrol-2-yl)-2-azaspiro[3.4]octan-2-yl)acetamide]",0.57,1.82
Cc1cc(CN2CCC(c3cc4[nH]c(-c5cc(C)c6ncnn6c5)c(C(C)C)c4s3)CC2)no1 [Example 193],18.2,12.3
Cc1cc(-c2[nH]c3cc(C4CCN(C(=O)C5CN6CCC5CC6)CC4)sc3c2C(C)C)cn2ncnc12 (centres unmarked) [Example 204],0.5,9.9
Cc1cc(-c2[nH]c3cc(-c4cnc5c(c4)CN(CCO)CC5)sc3c2C(C)C)cn2ncnc12 [Example 190],2.4,0.5
CO[C@@H]1CCN(C(=O)c2cc3[nH]c(-c4cc(C)nc(C)c4)c(C(C)C)c3s2)C[C@@H]1N [Example 25],64.4,136
Cc1cc(-c2[nH]c3cc(C4CCC5(CCN(CC(N)=O)C5)C4)sc3c2C(C)C)cn2ncnc12 (centres unmarked) [Example 280],2.89,7.51
Cc1cc(-c2[nH]c3cc(C(=O)N4CCCC5NCCC54)sc3c2C(C)C)cc(C)n1 (centres unmarked) [Example 28],26,81
Cc1cc(-c2[nH]c3cc(C4CCC5(CC4)CN(C(=O)CN4CCCC4)C5)sc3c2C(C)C)cn2ncnc12 [Example 208],0.3,12.3
Cc1cc(-c2[nH]c3cc(C4CCC5(CNC5)C4)sc3c2C(C)C)cn2ncnc12 (centres unmarked) [Example 162],0.6,11.2
COc1cc(-c2[nH]c3cc(-c4cn(C5CCNCC5)nn4)sc3c2C(C)C)cn2ncnc12 [Example 232],0.7,1.3
Cc1cc(-c2[nH]c3cc(C4CC5CCCC(C4)N5CC(N)=O)sc3c2C(C)C)cn2ncnc12 (centres unmarked) [Example 302],11.9,54
Cc1cc(-c2[nH]c3cc(C(=O)N4CC5CCC(C4)N5)sc3c2C(C)C)cc(C)n1 [Example 16],43.5,15.1
Cc1cc(-c2[nH]c3cc(C4CCN(Cc5ccn(C)n5)CC4)sc3c2C(C)C)cn2ncnc12 [Example 194],4.5,0.6
Cc1cc(-c2[nH]c3cc(C4CCN(C(=O)[C@@H]5CCCN5C)CC4)sc3c2C(C)C)cn2ncnc12 [Example 200],3.8,10
COc1cc(-c2[nH]c3cc(-c4cnn(C5CCNCC5)c4)sc3c2C(C)C)cn2ncnc12 [Example 233],0.4,1.4
